Measured values reported in patent US20260077069A1, “COMBINATIONS OF CONTRAST AGENTS” (BAYER AKTIENGESELLSCHAFT, priority 2022, published 2026).
Where two headings read alike, the source gives them in different places. Marks after values point to notes of the source that are not given here.

Experiments:
[1] = 1.5 T, 37° C., Invest Radiol. 2005, cited from earlier work; for r1 plasma: bovine plasma instead of human plasma
[2] = Relaxivity measurements at 1.41 T in water and human plasma; type: physicochemical; conditions: 37° C., normalized to Gd
Experimental: Relaxivity measurements at 1.41 T were performed using a MiniSpec mq60 spectrometer (Bruker Analytik, Karlsruhe, Germany) operating at a resonance frequency of 60 MHz and a temperature of 37° C. The T1 relaxation times were determined using the standard inversion recovery (IR) method with a fixed relaxation delay of at least 5×T1. The variable inversion time (TI) was calculated automatically by the standard software of the MiniSpec mq60 (8 steps). The T2 measurements were performed by using a Carr-Purcell-Meiboom-Gill (CPMG) pulse sequence, applying a relaxation delay of at least 5×T1.
Each relaxivity measurement was performed using three different Gd concentrations (3 concentrations between 0.05 and 2 mM). The T1 and T2 relaxation times of the example compounds were measured in water and human plasma. Human plasma preparation: For each experiment fresh blood was taken from a volunteer using 10 mL citrate-tubes (Sarstedt S-Monovette 02.1067.001, 10 mL, Citrate). The 10 mL citrate-tubes were carefully inverted 10 times to mix blood and anticoagulant and centrifuged for 15 min at 1811 g at RT (Eppendorf, Centrifuge 5810R).
The relaxivities ri (where i=1, 2) were calculated based on the measured relaxation rates Ri in water and plasma:
where Ri(0) represent the relaxation rate of the respective solvent and CGd the concentration of the compound normalized to the Gadolinium. The Gadolinium concentrations of the investigated solutions were verified by Inductively Coupled Plasma Mass Spectrometry (ICP-MS Agilent 7500a, Waldbronn, Germany).

[3] = 37° C., from Robic et al. Invest Radiol. 2019, cited from earlier work
[4] = system: freshly isolated rat hepatocytes; test: Uptake into freshly isolated rat hepatocytes; type: cell-based; conditions: for Inhibition Rifampicine: uptake with OATP1B1/1B3 inhibitor Rifampicine 1:1, each 100 uM
Experimental: Freshly isolated rat hepatocytes were received as described before (Papeleu P. et al. (2006) Isolation of Rat Hepatocytes. In: Phillips I. R., Shephard E. A. (eds) Cytochrome P450 Protocols. Methods in Molecular Biology, vol 320. Humana Press, Totowa, NJ. https://doi.org/10.1385/1-59259-998-2:229). The rat hepatocytes were incubated (2.5·10^5 cells/well) for 2.5 to 4 h in collagen coated 24-well plates (Fa. Beckton Dickinson Biocoat, cell environments, Collagen I Cellware) in Williams E-medium (Fa. Sigma W1878) in an incubator (37° C., 5% CO2 and […]). After incubation the adherent hepatocytes were washed once with 37° C. Hepes carbonate transport buffer (500 μL/well). The test items and RC3 were prepared from stock solutions (180 to 500 mM concentration) in Hepes carbonate transport buffer at pH 7.4 to reach a final concentration of 100 μmol Gd/L. The specific uptake of the test item or RC3 into rat hepatocytes via OATP1B1 and OATP1B3 was challenged using a known OATP1B1/1B3 inhibitor (Rifampicine, Fa. Sigma R3501, test item and inhibitor 1:1 each 100 µM final concentration). The prepared rat hepatocyte plates were incubated with test solutions (500 μL/well) at 37° C. for 10 min using a thermoshaker (Fa. Grant Bio, PHMP). Triplicates were performed for each test item. After incubating the cells were washed once with cold PBS buffer (Fa. Gibco, Dulbeccos PBS (+)). After washing the intact hepatocytes were lysed by addition of 500 μL cold 0.01% Triton-X 100 in Millipore water for 1 h. The strongly hypo-osmolar water led to cell membrane rupture and the release of the intracellular Gd-compound. After 1 h 500 μL of 10 nM Terbium ICP-MS standard was added in 2% nitric acid and 0.01% Triton 100 before the Gadolinium concentrations in the lysate were measured using ICP-MS (Agilent 8900, singleQuad, integr. Time 0.3 s, no gas, 5 replicates, Gd m/z 157, Tb m/z 159). As a reference standard RC3 is used in the same well plate. The hepatocyte uptake of the test compound is calculated relative to RC3 (resulting in the unit % of RC3).

| SMILES | r1 water [2] [L/mmol/s] | r1 human plasma [2] [L/mmol/s] | Inhibition Rifampicine [4] [% inhibition] | also measured |
| --- | --- | --- | --- | --- |
| O=C([O-])CN1CCN(CC(=O)[O-])CCN([C@H](CO)[C@H](O)CO)CCN(CC(=O)[O-])CC1.[Gd+3] (racemic) [RC 1, gadobutrol] |  |  |  | r1 plasma [1]: 3.6^# L·mmol^−1·s^−1; r1 water [1]: 2.9^# L·mmol^−1·s^−1 |
| O=C([O-])CN1CCN(CC(=O)[O-])CCN(CC(=O)N2CCN(C(=O)CN3CCN(CC(=O)[O-])CCN(CC(=O)[O-])CCN(CC(=O)[O-])CC3)CC(C(=O)N3CC4CN(C(=O)C5CN(C(=O)CN6CCN(CC(=O)[O-])CCN(CC(=O)[O-])CCN(CC(=O)[O-])CC6)CCN(C(=O)CN6CCN(CC(=O)[O-])CCN(CC(=O)[O-])CCN(CC(=O)[O-])CC6)C5)CC(C3)N4)C2)CCN(CC(=O)[O-])CC1.[Gd+3].[Gd+3].[Gd+3].[Gd+3] [Compound 9] | 7.4 |  |  |  |
| O=C([O-])CN1CCN(CC(=O)[O-])CCN(CC(=O)NCC(CNC(=O)CN2CCN(CC(=O)[O-])CCN(CC(=O)[O-])CCN(CC(=O)[O-])CC2)(CNC(=O)CN2CCN(CC(=O)[O-])CCN(CC(=O)[O-])CCN(CC(=O)[O-])CC2)CNC(=O)CN2CCN(CC(=O)[O-])CCN(CC(=O)[O-])CCN(CC(=O)[O-])CC2)CCN(CC(=O)[O-])CC1.[Gd+3].[Gd+3].[Gd+3].[Gd+3] [Compound 10] | 7.3 | 9.7 |  |  |
| O=C(CCC(C(=O)[O-])N1CCN(C(CCC(=O)NCC(O)CO)C(=O)[O-])Cc2cccc(n2)CN(C(CCC(=O)NCC(O)CO)C(=O)[O-])CC1)NCC(O)CO.[Gd+3] (stereo not shown) [Compound 11] |  |  |  | r1 human plasma ([3]; human plasma): 12.8** L·mmol^−1·s^−1; r1 water ([3]; water): 12.2** L·mmol^−1·s^−1 |
| CCOCCOc1ccc(CC(C(=O)[O-])N2CCN(CC(=O)[O-])CCN(C(CC)C(=O)O)CCN(CC(=O)[O-])CC2)cc1.[Gd+3] (stereo not shown) [Compound 13] | 4.5 | 7.4 | 99 |  |
| CCCCOc1ccc(CC(C(=O)[O-])N2CCN(CC(=O)[O-])CCN(CC(=O)[O-])CCN(CC(=O)O)CC2)cc1.[Gd+3] (stereo not shown) [Compound 14] | 4.3 | 13.3 | 98 |  |
| CCOCCOCCOc1ccc(CCC[C@@H](C(=O)O)N2CCN([C@@H](CO)C(=O)[O-])CCN([C@@H](CO)C(=O)[O-])CCN([C@@H](CO)C(=O)[O-])CC2)cc1.[Gd+3] [Compound 15] | 5.1 | 8.7 | 94 |  |
| CCOCCOCCOc1ccc(CCC[C@H](C(=O)O)N2CCN([C@H](CO)C(=O)[O-])CCN([C@H](CO)C(=O)[O-])CCN([C@H](CO)C(=O)[O-])CC2)cc1.[Gd+3] [Compound 16] | 5.3 | 9.0 | 92 |  |
| CCCC(C(=O)[O-])N1CCN(CC(=O)[O-])CCN(C(Cc2ccc(OCC)cc2)C(=O)O)CCN(CC(=O)[O-])CC1.[Gd+3] (stereo not shown) [Compound 17] | 4.4 | 7.5 | 99 |  |
| CCCCOc1ccc(CCCC(C(=O)O)N2CCN(CC(=O)O)CCN(CC(=O)O)CCN(CC(=O)O)CC2)cc1 (stereo not shown) [Compound 18] | 4.4 | 15.8 | 94 |  |
| CCCCOc1cccc(CCC[C@@H](C(=O)O)N2CCN([C@@H](CO)C(=O)[O-])CCN([C@@H](CO)C(=O)[O-])CCN([C@@H](CO)C(=O)[O-])CC2)c1.[Gd+3] [Compound 19] | 4.9 | 18.0 | 90 |  |
| CCOCCOCCOc1ccc(CC(C(=O)[O-])N2CCN(CC(=O)[O-])CCN(C(CC)C(=O)[O-])CCN(CC(=O)O)CC2)cc1.[Gd+3] (stereo not shown) [Compound 20] | 4.8 | 6.9 | 97 |  |
| O=C([O-])CN1CCN(CC(=O)[O-])CCN(C(Cc2ccc(OCC(F)(F)C(F)F)cc2)C(=O)[O-])CCN(CC(=O)O)CC1.[Gd+3] (stereo not shown) [Compound 21] | 3.5 | 10.8 | 90 |  |
| CCOCCOc1ccc(CC2CN(CC(=O)[O-])CCN(CC(=O)[O-])CCN(CC(=O)[O-])CCN2CC(=O)O)cc1.[Gd+3] (stereo not shown) [Compound 22] | 4.8 | 6.6 | 94 |  |
| CCOc1ccc(CC2CN(CC(=O)[O-])CCN(CC(=O)[O-])CCN(CC(=O)O)CCN2CC(=O)[O-])cc1.[Gd+3] (stereo not shown) [Compound 23] | 4.5 | 6.2 | 96 |  |
| CCCCOc1ccc(CC2CN(CC(=O)[O-])CCN(CC(=O)[O-])CCN(CC(=O)O)CCN2CC(=O)[O-])cc1.[Gd+3] (stereo not shown) [Compound 24] | 5.3 | 9.8 | 86 |  |
| CNC[C@H](O)[C@@H](O)[C@H](O)[C@H](O)CO.O=C([O-])CN1CCN(CC(=O)[O-])CCN(CC(=O)O)CCN(CC(=O)[O-])CC1.[Gd+3] [RC 2, gadoterate meglumine] |  |  |  | r1 plasma [1]: 5.2^# L·mmol^−1·s^−1; r1 water [1]: 3.3^# L·mmol^−1·s^−1 |
| CCOc1ccc(CC(CN(CCN(CC(=O)[O-])CC(=O)[O-])CC(=O)[O-])N(CC(=O)[O-])CC(=O)[O-])cc1.[Gd+3].[Na+].[Na+] (stereo not shown) [RC 3, gadoxetate disodium] |  |  | 97 | r1 plasma [1]: 6.9^# L·mmol^−1·s^−1; r1 water [1]: 4.7^# L·mmol^−1·s^−1 |
| O=C([O-])CN(CCN(CC(=O)[O-])CC(=O)[O-])CCN(CC(=O)[O-])C(COCc1ccccc1)C(=O)[O-].[Gd+3].[H+].[H+] (stereo not shown) [RC 4, gadobenic acid, reference compound] |  |  | 79 | r1 plasma [1]: 6.3^# L·mmol^−1·s^−1; r1 water [1]: 4.0^# L·mmol^−1·s^−1; Uptake rat hepatocytes ([4]; 100 μmol Gd/L, 10 min, 37° C., Gd in lysate by ICP-MS, relative to RC3): 9 % of RC3 |
